{
  "source": "paper PMC9814779",
  "about": "“A triple farnesoid X receptor and peroxisome proliferator-activated receptor α/δ activator reverses hepatic fibrosis in diet-induced NASH in mice” (Communications Chemistry, 2020)",
  "test_system": "PPARδ-regulated genes in C2C12 cells",
  "test": "PPARδ-regulated gene expression in differentiated C2C12 cells (qRT-PCR)",
  "type": "cell-based, murine",
  "settings": "C2C12 myotubes, 1 μM, 8 h",
  "method": "HepG2 cells (DSMZ) were grown in DMEM high glucose, supplemented with 10% FCS, 1 mM SP, penicillin (100 U/mL), and streptomycin (100 μg/mL) at 37 °C and 5% CO2 and seeded in 6-well plates (2 × 10^6 per well). After 24 h, medium was changed to Minimal Essential Medium supplemented with 1% charcoal-stripped FCS, penicillin (100 U/mL), streptomycin (100 μg/mL), and 2 mM L-glutamine. After an additional 24 h, cells were incubated with test compound 41 (0.1 µM, 0.3 µM, 1 μM), OCA (1 μM), or elafibranor (1 µM) dissolved in the same medium with 0.1% DMSO or medium with 0.1% DMSO alone as untreated control for 12 h, harvested, washed with cold phosphate-buffered saline (PBS), and then directly used for RNA extraction. C2C12 cells (American Type Culture Collection, ATCC) were grown in DMEM high glucose, supplemented with 10% FCS, 1 mM SP, penicillin (100 U/mL), and streptomycin (100 μg/mL) at 37 °C and 5% CO2 and seeded in 6-well plates (1 × 10^6 per well). […] FXR- and PPAR-regulated gene expression was then studied by quantitative real-time PCR (qRT-PCR) analysis with a StepOnePlus System (Life Technologies, Carlsbad, CA, USA) using PowerSYBRGreen (Life Technologies; 12.5 μL per well). […] Data were analyzed by the comparative ΔΔCT method with glyceraldehyde 3-phosphate dehydrogenase (GAPDH) as reference gene. […]",
  "data": [
    {"smiles": "CC(C)(C)c1ccc(C(=O)Nc2cccc(CCC(=O)O)c2)c(NC(=O)c2ccc(-c3ccco3)cc2)c1", "note": "[compound 41, 3-(3-[4-{tert-Butyl}-2-{4-(2-furyl)}benzamido]phenyl)propanoic acid]", "values": [
      {"measurement": "upregulation of PCK and GLUT3 mRNA", "result": "comparable efficacy as the selective PPARδ agonist L165,041"},
      {"measurement": "effect on LPL expression", "setting": "compared with L165,041", "result": "less pronounced"}
    ]}
  ]
}
